Laboratory results: patent US9474702B2, “Cosmetic use of salicylic acid derivatives” (Avon Products, Inc., priority 2013, dated 2016)

Molecular target: T1, recombinant human (rh) KLK5 protease (Homo sapiens, UniProt Q9Y337)
T1 construct: purchased R&D Systems 1108-SE
T1 sequence (Q9Y337 23-293): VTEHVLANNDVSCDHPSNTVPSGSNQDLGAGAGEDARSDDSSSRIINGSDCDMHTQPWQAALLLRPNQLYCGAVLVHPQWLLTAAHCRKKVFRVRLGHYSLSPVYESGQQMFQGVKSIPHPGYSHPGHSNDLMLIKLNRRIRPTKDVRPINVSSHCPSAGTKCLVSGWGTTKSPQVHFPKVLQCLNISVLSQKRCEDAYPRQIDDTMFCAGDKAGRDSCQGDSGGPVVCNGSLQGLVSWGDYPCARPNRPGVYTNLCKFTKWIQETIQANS
Test: Enzymatic activity of Kallikrein 5 (KLK5), fluorogenic peptide substrate Boc-V-P-R-AMC
Format: biochemical
Method: The compound of Formula 1a was assayed for enzymatic activity of Kallikrein 5 (KLK5) as follows, and its activity compared to that of salicylic acid. The KLK5 activity of the compound of Formula 1a was calculated as a percentage of KLK5 activity relative to salicylic acid.
In the stratum corneum, skin's outermost layer, cell-to-cell cohesion depends primarily on proteins known as the corneodesmosomes. During skin remodeling and renewal dead cells are shed from the skin surface by the action of native proteases that break down the corneodesmosomes. […] To this end, the enzymatic activity of a member of the KLK family, recombinant human (rh) KLK5, was monitored following pre-incubation with actives and measuring the rate of peptide bond cleavage of a synthetic substrate.
Enzymatic activity of KLK5 was measured by incubating recombinant human (rh) KLK5 protease (R&D Systems, Cat No. 1108-SE) with a specific fluorogenic peptide substrate Boc-V-P-R-AMC (R&D Systems, Cat No. ES011). […] Increase in fluorescence reading indicates an increase in rhKLK5 activity. […] After 60 seconds of incubation, fluorescence was measured at 340 nm (Excitation wavelength) and 485 nm (Emission wavelength) every 1 minute for 7 minutes. Rate (kinetics) of enzyme activity was calculated as follows: Rate of enzyme activity=Change of fluorescent reading (after background correction)/Change of reaction time (min). […]

KLK5 activity as a percentage relative to salicylic acid (stimulator effect) (relative to salicylic acid, dimer tested at a concentration approximately half of that of salicylic acid, difference not significant): about 90%
KLK5 stimulation (in words) (rhKLK5 enzymatic activity): potent stimulator of KLK5
SMILES: O=C(Oc1ccccc1C(=O)O)c1ccccc1O [compound of Formula 1a]
